“Also recorded” adds a separate entry of the source.
How the values were obtained:
tubulin [1] = system: T1, tubulin; test: Enhancement of glutamate- or MAP-induced tubulin assembly, turbidimetric curves (FIGS. 4 and 5); type: biochemical
T1 construct: Activity in room temperature assay; other: no polymerization in the absence of drug; other: GTP-only system, critical concentrations

tubulin [2] = system: T1, tubulin; test: Tubulin polymerization inhibition in vitro (turbidity at 350 nm); type: biochemical; parameters: key: *: Accelerates tubulin polymerization; conditions: no IC50 derivable
tubulin [3] = system: T2, tubulin; test: as above; type: biochemical
T2 construct: other: 1.0 M glutamate, 10 μM tubulin; Effect on tubulin polymerization / microtubule assembly
Description: Microtubule assembly is followed in a temperature controlled recording spectrophotometer. For details and a discussion, see R. D'Amato et al., Proc Natl Acad Sci USA, 91:3964-3968 (1994).
A typical reaction mixture, which will have a final reaction volume of […], contains 1.0 M monosodium glutamate (pH 6.6), 1.0 mg/ml (10 μM) tubulin, 1.0 MM MgCl2, 4% (v/v) dimethylsulfoxide, and a compound to be tested at the desired concentration (typically 0.1 to 100 μM). The reaction mixtures are incubated for 15 min. at 37° C. and then chilled on ice. After addition of 10 μl 12.5 mM GTP (and, optionally, 0.33 mg/ml microtubule-associated proteins, or MAPs) to initiate polymerization, each reaction mixture is transferred to a cuvette at 0° C., and a baseline established. At time zero, the temperature controller of the spectrophotometer is set to a target temperature, typically between 25 and 37° C. Microtubule assembly is monitored by observing an increase in turbidity at 350 nm as the temperature of the reaction mixture rises to the set target temperature.
The results are presented in Table 1 as IC50 values (μM) for inhibition of tubulin polymerization. Alternatively, inhibition of microtubule assembly can be detected by transmission electron microscopy, as described in U.S. Pat. No. 5,504,074 which is hereby incorporated by reference in its entirety.

tubulin [4] = system: T1, tubulin; test: Critical concentration of tubulin for assembly, turbidimetric (FIG. 6); type: biochemical; conditions: for Critical concentration of tubulin, GTP-dependent, MAP-independent assembly: no MAPs
Description: FIG. 6 presents critical concentrations, obtained at 30° C., of tubulin with paclitaxel and compound 13. A: MAPs -and GTP-dependent assembly without drug and in the presence of 10 μM paclitaxel or 10 μM 13. B: GTP-dependent, MAP-independent assembly with 10 μM paclitaxel or 10 μM 13.
Measurement of the critical concentration with and without MAPs with paclitaxel, and again with 13, was therefore carried out to provide some idea of the comparative activity of these agents. The data are presented in FIG. 6, which yield critical concentrations, obtained at 30° C., of 1.4, 0.06, and 0.50 mg/ml for MAP-and GTP-dependent assembly without drug and in the presence of 10 μM paclitaxel or 10 μM 13, respectively, and 0.20 and 1.4 mg/ml for GTP-dependent, MAP-independent assembly with 10 μM paclitaxel or 10 μM 13. […] (A constant weight ratio of MAPs to tubulin of 1:3 was used, because the suboptimal concentration of MAPs caused greater differences in the critical concentrations obtained.) Reaction mixtures (0.25 ml) contained 0.1 M Mes (pH 6.9), 100 μM GTP, 4% dimethyl sulfoxide, the indicated tubulin concentration (with heat-treated MAPs in 1:3 weight ratio to the tubulin, panel A only), and either 10 μM paclitaxel (▴), 10 μM compound 13 (◯), or no drug (▾). Cuvette contents were equilibrated at 0°, drugs were added, temperature was jumped to 30° (about one min), and the turbidity changes after a 20 min incubation measured.

tubulin [5] = system: T1, tubulin; test: Room temperature tubulin assembly assay (favorable reaction conditions, glutamate-dependent); type: biochemical; conditions: no polymerization in the absence of drug
Description: Previous observations with paclitaxel analogs indicate that differences between compounds are magnified in restrictive reaction conditions and minimized in favorable reaction conditions. […] However, under favorable reaction conditions (room temperature) the quantitative difference between paclitaxel and sarcodictyin A was only 2.5-fold. […] The critical concentration with 10 μM sarcodictyin A under the reaction conditions shown in FIG. 6B is 1.0 mg/ml in the GTP-only system.

tubulin polymer [6] = test: Inhibition of [3H]paclitaxel binding to tubulin polymer
tubulin [7] = system: T1, tubulin; test: Enhancement of glutamate- or MAP-induced tubulin assembly, turbidimetric curves (FIGS. 4 and 5); type: biochemical; remark: listed apart in the source
Description: In those cases where acceleration of tubulin polymerization is observed, an IC50 value for inhibition of polymerization is of course not derivable. Results for such compounds may be presented in the form of turbidimetric curves, e.g. as presented in FIGS. 4 and 5 for representative compounds 13 and 18.
FIG. 4: Each reaction mixture contained 0.8 M glutamate (pH 6.6), 0.4 mM GTP, 12 μM (1.2 mg/ml) tubulin, 4% (v/v) dimethyl sulfoxide, and compound 13 or 18 as indicated. Baselines were established at 0°, and at time zero the temperature controller was set at 26°. At the time indicated by the dashed line, the temperature controller was set at 0°. A. Curve 1, no drug; curve 2, 2 μM compound 13; curve 3, 5 μM 7; curve 4, 10 μM 7; curve 5, 40 μM 7; curve 6, 40 μM 14. B. Curve 1, no drug; curve 2, 2 μM compound 18; curve 3, 5 μM 18; curve 4, 10 μM 18; curve 5, 40 μM 18.
FIG. 5: Each reaction mixture contained 0.1 M Mes (pH 6.9 with NaOH in 0.5 M stock solution), 0.1 mM GTP, 10 μM (1.0 mg/ml) tubulin, 0.75 mg/ml heat-treated MAPs, 4% dimethyl sulfoxide, and drug as indicated. […] There was no change in turbidity in any reaction mixture. At this point the temperature controller was set at 10°, and subsequent temperature changes, as indicated, were made at the times indicated by the vertical dashed lines. Curve 1, no drug; curve 2, 10 μM paclitaxel; curve 3, 10 μM compound 13; curve 4, 20 μM 7; curve 5, 40 μM 7; curve 6, 10 μM compound 18.

tubulin [8] = system: T1, tubulin; test: Polymer morphology by electron microscopy; type: biochemical
Text: It was possible that compounds 13 and 18 were not actually acting like paclitaxel in enhancing microtubule assembly and in stabilizing the microtubules formed in the course of the turbidity studies shown in FIG. 4, but that these agents were causing formation of polymers of aberrant morphology and temperature stability different from microtubules, such as occurs with vinca alkaloids. Polymer morphology was examined by electron microscopy. […] Even more important, when the reaction mixtures were returned to 0° C. for 15 min, no microtubules were visualized on grids prepared from the reaction mixture without drug.

tubulin polymer [9] = conditions: cited from earlier work
tubulin [10] = system: T1, tubulin; conditions: favorable reaction conditions (room temperature); cited from earlier work
[11] = GTP-only system, critical concentrations

Structure (SMILES)	Tubulin assembly in the absence of GTP (tubulin [1])	Assembly reaction when either MAPs or GTP was omitted (tubulin [1]; 10 μM tubulin, 40 μM compound 13 or 10 μM paclitaxel)	Tubulin polymerization inhibition, symbol instead of IC50 (tubulin [2])	Effect on tubulin polymerization / microtubule assembly (tubulin [3])	Assembly of microtubules without MAPs (tubulin [4]; 10 μM 13, 40 μM tubulin)	Critical concentration of tubulin, MAP- and GTP-dependent assembly (tubulin [4]; 30° C., 10 μM drug, MAPs:tubulin 1:3 by weight)	Critical concentration of tubulin, GTP-dependent, MAP-independent assembly (tubulin [4]; 30° C., 10 μM drug)	Activity in room temperature assay (tubulin [5])	Inhibition of [3H]paclitaxel binding to tubulin polymer (tubulin polymer [6])	Maximal inhibition of [3H]paclitaxel binding to tubulin polymer (tubulin polymer [6])	Effect on glutamate- and MAP-induced tubulin assembly (tubulin [7])	Effect on MAP-induced tubulin assembly (tubulin [7]; 0.75 mg/ml MAPs, 1.0 mg/ml tubulin, 25° C.)	Microtubules formed, seen by electron microscopy (tubulin [8])	Cold stable microtubules after return to 0° C. for 15 min (tubulin [8]; 40 μM 13 or 10 μM paclitaxel)	Inhibition of paclitaxel binding to tubulin polymer (tubulin polymer [9])	Activity relative to compound 13 (% more active) (tubulin [4]; [11])	Activity relative to paclitaxel (fold less active) (tubulin [4]; [11])	Quantitative difference between paclitaxel and sarcodictyin A (tubulin [10])
CCOc1cc2c(cc1OC(C)=O)C(=O)CC[C@@H]1[C@@H]2CC[C@]2(C)[C@@H](OC(C)=O)CC[C@@H]12 [Compound 13, B-Homo-3,17β-diacetoxy-2-ethoxyestra-1,3,5(10)-triene-6-one]	has not been observed; also recorded: not without GTP	no reaction occurred	*	stimulate microtubule assembly	assembly of microtubules was observed without MAPs	0.50 mg/mL	1.4 mg/mL	inactive	only minimally inhibits	about 20%	paclitaxel-like properties	enhanced tubulin assembly; also recorded: significantly less than that of paclitaxel	abundant microtubules were formed that were indistinguishable from those formed in the absence of drug	abundant cold stable microtubules were observed	–	–	–	–
COC(=O)/C1=C/[C@@H]2[C@@H](C(C)C)CC=C(C)[C@@H]2C[C@H](OC(=O)/C=C/c2cn(C)cn2)[C@]2(C)C=C[C@@]1(O)O2 [sarcodictyin A]	–	–	–	–	–	–	1.0 mg/mL	–	–	–	–	–	–	–	only weakly inhibits	40%	about 5 fold	2.5 fold
